Here are results for one compound from patent US20070270400A1, “New compounds 303” (priority 2006, published 2007).

Each structure is given as a SMILES string.

One data set deals with T1, human NK1 receptor (Homo sapiens, UniProt P25103).
T1 construct: expressed in transfected cells; AstraZeneca R&D Wilmington), pRcCMV vector
The data set is described as follows: FLIPR assay, inhibition of human NK1 receptor activation (intracellular Ca2+). It counts as cell-based. To be noted: CHO cells with human NK1 receptor, agonist Substance P; pKB converted from IC50. How it is done: (§1) Chinese Hamster Ovary (CHO) K1 cells (obtained from ATCC) were stably transfected with the human NK2 receptor (hNK2R cDNA in pRc/CMV, Invitrogen) or the human NK3 receptor (hNK3R in pcDNA 3.1/Hygro (+)/IRES/CD8, Invitrogen vector modified at AstraZeneca EST-Bio UK, Alderley Park). The cells were transfected with the cationic lipid reagent LIPOFECTAMINE™ (Invitrogen) and selection was performed with Geneticin (G418, Invitrogen) at 1 mg/ml for the hNK2R transfected cells and with Hygromycin (Invitrogen) at 500 μg/ml for the hNK3R transfected cells. Single cell clones were collected by aid of Fluorescence Activated Cell Sorter (FACS), tested for functionality in a FLIPR assay (see below), expanded in culture and cryopreserved for future use. […]
(§2) The activity of a compound of the invention to inhibit NK1/NK2/NK3 receptor activation measured as NK1/NK2/NK3 receptor mediated increase in intracellular Ca^2+ was assessed by the following procedure:
(§3) CHO cells stably transfected with human NK1, NK2 or NK3 receptors were plated in black walled/clear bottomed 96-well plates (Costar 3904) at 3.5×10^4 cells per well and grown for approximately 24 h in normal growth media in a 37° C. […] The response was measured as the peak relative fluorescence after agonist addition and IC50s were calculated from ten-point concentration-response curves for each compound. […]

Another data set addresses T2, human NK2 receptor (Homo sapiens, UniProt P21452).
T2 construct: expressed in transfected cells
T2 sequence (P21452 1-398): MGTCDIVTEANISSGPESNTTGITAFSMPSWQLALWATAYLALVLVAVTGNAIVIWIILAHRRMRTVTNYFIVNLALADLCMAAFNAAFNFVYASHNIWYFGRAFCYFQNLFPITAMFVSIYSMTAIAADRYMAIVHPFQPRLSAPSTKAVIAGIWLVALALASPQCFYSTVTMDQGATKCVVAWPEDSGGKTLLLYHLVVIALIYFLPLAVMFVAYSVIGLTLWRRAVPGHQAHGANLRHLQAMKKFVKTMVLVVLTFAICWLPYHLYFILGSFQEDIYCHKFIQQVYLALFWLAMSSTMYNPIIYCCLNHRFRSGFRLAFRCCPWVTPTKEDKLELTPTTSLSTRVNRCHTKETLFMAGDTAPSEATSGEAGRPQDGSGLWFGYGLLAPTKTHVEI
As to the kind of experiment: FLIPR assay, inhibition of human NK2 receptor activation (intracellular Ca2+). It counts as cell-based. The note with it: CHO cells with human NK2 receptor, agonist NKA; pKB converted from IC50. How it is done: as §1, §2, §3

Another data set concerns the target T3, human NK3 receptor (Homo sapiens, UniProt P29371).
T3 construct: expressed in transfected cells
T3 sequence (P29371 1-465): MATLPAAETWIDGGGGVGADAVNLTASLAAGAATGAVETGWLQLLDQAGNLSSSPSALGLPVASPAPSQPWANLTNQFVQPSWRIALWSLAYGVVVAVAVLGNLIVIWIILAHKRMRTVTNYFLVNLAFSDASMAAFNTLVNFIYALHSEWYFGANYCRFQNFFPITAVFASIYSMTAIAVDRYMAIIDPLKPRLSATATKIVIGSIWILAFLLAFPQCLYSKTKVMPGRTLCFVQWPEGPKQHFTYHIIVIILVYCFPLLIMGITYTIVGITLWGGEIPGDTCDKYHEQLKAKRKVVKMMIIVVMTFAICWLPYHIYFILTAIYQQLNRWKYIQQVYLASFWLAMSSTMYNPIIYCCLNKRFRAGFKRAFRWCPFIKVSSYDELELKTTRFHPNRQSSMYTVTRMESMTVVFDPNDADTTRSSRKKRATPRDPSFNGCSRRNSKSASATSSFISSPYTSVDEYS
As to the kind of experiment: FLIPR assay, inhibition of human NK3 receptor activation (intracellular Ca2+). It counts as cell-based. To be noted: CHO cells with human NK3 receptor, agonist Pro-7-NKB; pKB converted from IC50. As for the experimental part: as §1, §2, §3

Data set [1] addresses hERG-encoded potassium channel (Homo sapiens, UniProt Q12809). As to the kind of experiment: Activity against hERG, planar-array-based voltage clamp. Format: cell-based. The text has this:
The activity of compounds according to formula I against the hERG-encoded potassium channel can be determined according to Kiss L, et al. Assay Drug Dev Technol. 1 (2003), 127-35: “High throughput ion-channel pharmacology: planar-array-based voltage clamp”.

In a further data set the target is CYP3A4 (Homo sapiens, UniProt P08684). As to the kind of experiment: CYP3A4 inhibition according to Bapiro et al. Format: in vitro ADME. How it is done:
The IC50 values tested according to Bapiro et al; Drug Metab. Dispos. 29, 30-35 (2001) were generally greater than 15 μM.

Data set [2] is described as follows: Metabolic stability in liver microsomes (intrinsic clearance). It counts as in vitro ADME. To be noted: human, pH 7.4, HLM. How it is done: The rate of biotransformation can be measured as either metabolite(s) formation or the rate of disappearance of the parent compound. The experimental design involves incubation of low concentrations of substrate (usually 1.0 μM) with liver microsomes (usually 0.5 mg/ml) and taking out aliquotes at varying time points (usually 0, 5, 10, 15, 20, 30, 40 min.). The test compound is usually dissolved in DMSO. The DMSO concentration in the incubation mixture is usually 0.1% or less since more solvent can drastically reduce the activities of some CYP450s. Incubations are done in 100 mM potassium phosphate buffer, pH 7.4 and at 37° C. Acetonitrile or methanol is used to stop the reaction. The parent compound is analysed by HPLC-MS. From the calculated half-life, t1/2, the intrinsic clearance, Clint, is estimated by taking microsomal protein concentration and liver weight into account.

CYP3A4, sequence (P08684 whole entry): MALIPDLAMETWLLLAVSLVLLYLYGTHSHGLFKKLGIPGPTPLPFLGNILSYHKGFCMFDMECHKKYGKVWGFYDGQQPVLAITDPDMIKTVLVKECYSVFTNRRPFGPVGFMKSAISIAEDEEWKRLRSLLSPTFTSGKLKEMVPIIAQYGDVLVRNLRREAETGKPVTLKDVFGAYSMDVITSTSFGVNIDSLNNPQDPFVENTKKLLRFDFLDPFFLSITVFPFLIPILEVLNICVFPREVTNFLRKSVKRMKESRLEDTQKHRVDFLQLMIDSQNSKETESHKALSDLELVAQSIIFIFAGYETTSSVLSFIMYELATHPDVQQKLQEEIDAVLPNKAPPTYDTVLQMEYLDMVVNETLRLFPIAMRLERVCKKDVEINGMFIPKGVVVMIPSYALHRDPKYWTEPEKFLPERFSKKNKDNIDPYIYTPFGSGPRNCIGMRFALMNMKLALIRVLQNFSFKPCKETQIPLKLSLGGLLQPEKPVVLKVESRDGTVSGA
T1 sequence (P25103 whole entry): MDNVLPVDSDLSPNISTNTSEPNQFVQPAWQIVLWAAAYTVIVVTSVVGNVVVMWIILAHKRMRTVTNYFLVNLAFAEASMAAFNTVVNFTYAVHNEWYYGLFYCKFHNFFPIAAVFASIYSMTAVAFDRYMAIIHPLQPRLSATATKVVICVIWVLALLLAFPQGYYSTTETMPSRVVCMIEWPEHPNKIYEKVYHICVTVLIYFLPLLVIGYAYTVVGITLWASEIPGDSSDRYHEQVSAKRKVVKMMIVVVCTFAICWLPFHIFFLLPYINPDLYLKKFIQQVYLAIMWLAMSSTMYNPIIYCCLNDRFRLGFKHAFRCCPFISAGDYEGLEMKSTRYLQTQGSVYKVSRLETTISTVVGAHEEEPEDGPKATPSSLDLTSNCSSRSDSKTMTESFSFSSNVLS
hERG-encoded potassium channel, sequence (Q12809 whole entry): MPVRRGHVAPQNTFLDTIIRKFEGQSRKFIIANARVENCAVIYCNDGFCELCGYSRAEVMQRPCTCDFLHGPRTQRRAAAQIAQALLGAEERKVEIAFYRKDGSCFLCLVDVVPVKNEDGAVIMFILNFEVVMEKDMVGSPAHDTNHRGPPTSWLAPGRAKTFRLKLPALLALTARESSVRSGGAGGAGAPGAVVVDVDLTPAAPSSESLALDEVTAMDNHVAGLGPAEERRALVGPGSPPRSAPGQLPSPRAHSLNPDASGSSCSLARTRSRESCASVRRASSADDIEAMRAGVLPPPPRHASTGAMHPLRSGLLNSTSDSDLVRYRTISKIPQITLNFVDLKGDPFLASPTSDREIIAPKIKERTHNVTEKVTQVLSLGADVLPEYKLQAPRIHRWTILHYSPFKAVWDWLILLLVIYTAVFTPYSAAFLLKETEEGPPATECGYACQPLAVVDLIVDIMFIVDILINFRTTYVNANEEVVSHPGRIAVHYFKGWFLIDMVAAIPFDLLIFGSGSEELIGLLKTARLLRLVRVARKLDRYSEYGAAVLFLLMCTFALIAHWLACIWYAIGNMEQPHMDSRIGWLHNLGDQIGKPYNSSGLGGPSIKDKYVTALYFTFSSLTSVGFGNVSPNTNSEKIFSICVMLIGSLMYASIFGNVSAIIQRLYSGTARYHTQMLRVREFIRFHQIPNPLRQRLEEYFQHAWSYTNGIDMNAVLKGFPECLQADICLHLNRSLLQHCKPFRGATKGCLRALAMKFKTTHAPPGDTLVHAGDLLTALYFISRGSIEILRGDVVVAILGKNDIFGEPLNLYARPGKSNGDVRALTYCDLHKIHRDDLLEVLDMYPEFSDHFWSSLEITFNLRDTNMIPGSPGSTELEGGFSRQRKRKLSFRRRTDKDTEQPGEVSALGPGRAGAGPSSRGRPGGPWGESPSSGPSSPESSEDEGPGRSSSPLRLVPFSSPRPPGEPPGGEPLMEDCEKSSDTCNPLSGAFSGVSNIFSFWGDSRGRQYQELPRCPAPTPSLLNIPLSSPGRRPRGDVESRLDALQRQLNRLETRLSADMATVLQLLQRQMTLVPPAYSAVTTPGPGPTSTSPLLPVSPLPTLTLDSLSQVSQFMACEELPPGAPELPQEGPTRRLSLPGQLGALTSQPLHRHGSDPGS

As to `CC(C)C(=O)N1CCN(C2CN(CC[C@H](CN(C)C(=O)c3cc(Cl)cc(C(F)(F)F)c3)c3ccc(F)cc3)C2)CC1` [Ex 2, 3-Chloro-N-{(2S)-2-(4-fluorophenyl)-4-[3-(4-isobutyrylpiperazin-1-yl)azetidin-1-yl]butyl}-N-methyl-5-(trifluoromethyl)benzamide], the Kb is 10 nM on human NK1 receptor, 31.6 nM at human NK2 receptor and 63.1 nM at human NK3 receptor. Besides, the IC50 was found to be 6600 nM in data set [1] and 18300 nM against CYP3A4. The same compound gave a microsomal CLint at 1 μM in data set [2] of 36 µL/min/mg.
